{"source": "patent US20160000851A1", "about": "“Bioactive Botanical Compositions and Uses Thereof” (AKZO NOBEL CHEMICALS INTERNATIONAL B.V., priority 2013, published 2016)", "format_in_all_cases": "cell-based", "key": {"IL-8 [1]": {"system": "IL-8", "test": "Surfactant induction of IL-8 release in human epidermal keratinocytes", "conditions": "HEK, 16 hours, SDS at 6 μg/ml", "protocol": "(§1) The protocols for the growth and treatment of human primary epidermal keratinocyte (HEK) cultures are as follows. HEK and all cell culture supplies were obtained from Life Technologies Co. (Carlsbad, Calif.). The cells were maintained in keratinocyte growth medium (KGM), which contains keratinocyte basal medium 154 (M154) and human keratinocyte growth supplements (HKGS). They were grown at 37° C. in an atmosphere of 5% (v/v) CO2 and used between passages from 2 to 4. For the treatment, keratinocytes were trypsinized by Trypsin 0.025%/EDTA 0.01% in Phosphate Buffered Saline, seeded in 96-well plates, and grown in KGM to about 80% confluence. The cells were then exposed to SDS (Sigma-Aldrich Co., St. Louis, Mo.) at various concentrations for about 16 hours. After incubation, the supernatants were collected, and IL-1α and IL-8 were quantified using Quantikine® ELISA (R&D Systems, Minneapolis, Minn.). Results were presented as the mean±standard deviation. IC50 was calculated using sigmoidal curve fitting with SigmaPlot Version 10.0 (Systat Software). LDH (lactate dehydrogenase) assay (G-Biosciences, St. Louis, Mo.) was performed on all the supernatants to assess cytotoxicity.\n(§2) The protocols for the growth of HEK are described under Example 1. Instead of SDS, the keratinocytes were exposed to a range of concentrations of ethoxylated alcohol for about 16 hours."}, "[2]": {"system": "human epidermal keratinocytes (HEK)", "test": "Mildness ranking of surfactants by LDH cytotoxicity and IL-1α release in HEK", "conditions": "based on LDH cytotoxicity and IL-1α induction in HEK", "protocol": "as §1, with “cytotoxicity. […]” for “cytotoxicity.”"}, "IL-1α [3]": {"system": "IL-1α", "test": "Surfactant induction of IL-1α release in human epidermal keratinocytes", "conditions": "HEK, 16 hours, SDS at 25 μg/ml", "protocol": "as §1, §2"}, "IL-8 [4]": {"system": "IL-8", "test": "Inhibition of basal level non-induced IL-8 release in human epidermal keratinocytes", "conditions": "HEK, 16 hours", "protocol": "as §1\nThe protocols for the growth of HEK are described under Example 1."}, "IL-1α [5]": {"system": "IL-1α", "test": "Inhibition of SDS-induced IL-1α release in human epidermal keratinocytes (ELISA)", "conditions": "Keratinocyte, HEK, SDS 25 μg/ml, 16 hours, read-out: Estimated IC50 for inhibition of SDS-induced IL-1α release"}, "IL-8 [6]": {"system": "IL-8", "test": "Inhibition of SDS-induced IL-8 release in human epidermal keratinocytes (ELISA)", "conditions": "HEK, SDS 6 μg/ml, 16 hours", "quoted_text": "The protocols for the growth and treatment of human primary epidermal keratinocyte (HEK) cultures are as follows. HEK and all cell culture supplies were obtained from Life Technologies Co. (Carlsbad, Calif.). The cells were maintained in keratinocyte growth medium (KGM), which contains keratinocyte basal medium 154 (M154) and human keratinocyte growth supplements (HKGS). They were grown at 37° C. in an atmosphere of 5% (v/v) CO2 and used between passages from 2 to 4. For the treatment, keratinocytes were trypsinized by Trypsin 0.025%/EDTA 0.01% in Phosphate Buffered Saline, seeded in 96-well plates, and grown in KGM to about 80% confluence. The cells were then exposed to SDS (Sigma-Aldrich Co., St. Louis, Mo.) at various concentrations for about 16 hours. After incubation, the supernatants were collected, and IL-1α and IL-8 were quantified using Quantikine® ELISA (R&D Systems, Minneapolis, Minn.). […] IC50 was calculated using sigmoidal curve fitting with SigmaPlot Version 10.0 (Systat Software). […]\nTreatment was conducted by incubation of HEK with SDS (25 μg/ml for induction of IL-1α or 6 μg/ml for induction of IL-8 as determined in Example 1) for 16 hours in presence of a range of concentrations of Recentia® CS, or conventional green tea preparation, or conventional black tea preparation."}, "IL-1α [7]": {"system": "IL-1α", "test": "Inhibition of ethoxylated alcohol-induced IL-1α release in human epidermal keratinocytes (ELISA)", "conditions": "HEK, ethoxylated alcohol 1000 μg/ml, 16 hours", "quoted_text": "Treatment was conducted by incubation of HEK with ethoxylated alcohol (1000 μg/ml for induction of IL-1α as determined in Example 3) for 16 hours in presence of a range of concentrations of Recentia® CS, or Aspirin.\nTreatment was conducted by incubation of HEK with ethoxylated alcohol (500 μg/ml for induction of IL-1α, as determined in Example 3) for 16 hours in presence of a range of concentrations of Recentia® CS, or conventional green tea preparation or conventional black tea preparation."}}}
{"compound": "CCCCCCCCCCCCOS(=O)(=O)[O-].[Na+]", "note": "[SDS, Sodium Dodecyl Sulfate]", "values": [{"measurement": "Induction of IL-8 release by surfactant", "setting": "IL-8 [1]", "result": "significant (p<0.001) induction of IL-8"}, {"measurement": "Mildness/harshness rank among six tested surfactants", "setting": "[2]", "result": "close to the harshest surfactant"}, {"measurement": "Induction of IL-1α release by surfactant", "setting": "IL-1α [3]", "result": "significant (p<0.001) induction of IL-1α"}]}
{"compound": "C[S+]([O-])c1ccc(-c2nc(-c3ccncc3)c(-c3ccc(F)cc3)[nH]2)cc1", "note": "(stereo not shown) [SB203580]", "values": [{"measurement": "Inhibition of basal level non-induced IL-8 release (in words)", "setting": "IL-8 [4]", "result": "inhibited SDS-induced IL-8 only"}]}
{"compound": "CC(=O)Oc1ccccc1C(=O)O", "note": "[Aspirin]", "values": [{"measurement": "IC50", "setting": "IL-1α [5]", "result": "~230", "unit": "µg/mL"}, {"measurement": "Inhibition of SDS-induced IL-8 release (in words)", "setting": "IL-8 [6]", "result": "did not inhibit SDS-induced release of inflammatory chemokine IL-8"}, {"measurement": "Inhibition of ethoxylated alcohol-induced IL-1α release (in words)", "setting": "IL-1α [7]", "result": "failed to inhibit IL-1α release induced by the ethoxylated alcohol"}]}
